This passage reports IC50 results from US20250120927A1, “CNDP2 MODULATORS AND METHODS FOR THEIR USE” (Metabolon Inc., priority 2023, published 2025).

Broadly, the IC50 is the point on the concentration scale where inhibition reaches its midpoint.

Where a name gives a salt, the structure may show the parent alone.

Sequence of CNDP2 (Q96KP4 whole entry): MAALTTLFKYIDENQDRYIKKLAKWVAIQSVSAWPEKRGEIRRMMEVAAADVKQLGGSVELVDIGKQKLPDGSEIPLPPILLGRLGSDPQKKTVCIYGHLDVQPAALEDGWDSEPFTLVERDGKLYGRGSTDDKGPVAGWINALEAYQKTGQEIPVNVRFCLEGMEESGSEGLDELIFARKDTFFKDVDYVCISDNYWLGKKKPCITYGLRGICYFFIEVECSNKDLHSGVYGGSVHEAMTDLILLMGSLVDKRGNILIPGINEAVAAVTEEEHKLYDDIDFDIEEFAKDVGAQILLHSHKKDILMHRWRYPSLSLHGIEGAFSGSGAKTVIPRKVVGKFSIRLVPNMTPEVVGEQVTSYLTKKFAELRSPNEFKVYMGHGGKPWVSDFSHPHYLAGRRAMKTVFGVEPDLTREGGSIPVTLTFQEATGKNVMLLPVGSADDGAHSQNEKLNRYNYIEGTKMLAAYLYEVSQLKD

The target in this assay is CNDP2 (Homo sapiens (Human), UniProt Q96KP4). The experiment in a line: CNDP2 enzyme inhibition assay (Met-His hydrolysis, free histidine by o-phthaldialdehyde fluorescence), dose-response. To be noted: 50 nM purified CNDP2 (Sino Biological), 1 mM Met-His substrate, 30 minutes at 37° C.; TABLE 2. In kind it is biochemical. On the procedure:
To identify optimal conditions for identifying novel inhibitors of CNDP2, enzyme assays were performed with varied sources of purified enzyme, concentrations of enzyme, peptide substrates, concentrations of peptide substrates and metal cofactors. […] The reaction mixture was incubated for 30 minutes at 37° C. before it was quenched with an equal volume of 1% TCA. Free histidine was quantified after derivatization with a fluorophore (o-phthaldialdehyde from Sigma-Aldrich, excitation 340 nm, emission 460 nm). The reaction was conducted in an automation-friendly format to meet future screening throughput demands. A histidine titration standard curve was also included to enable conversion of fluorescence signal to molar concentration of histidine released by the hydrolysis reaction and to ensure the linearity of the fluorescence signal vs. free histidine.
Compounds of Formula (I) disclosed herein were screened for potency in inhibiting CNDP2 enzyme activity in a dose-response experiment. Bestatin was included with each batch of test molecules as a benchmark for assay quality control.
`N[C@H](Cc1ccccc1)[C@H](O)C(=O)NC(c1cccc(C(F)(F)F)c1)C(F)(F)C(=O)O` (stereo partly drawn) [Compound 64] had an IC50 of at least 1 µM. The value for `N[C@H](Cc1ccccc1)[C@H](O)C(=O)NC(C(=O)O)c1cccc(OC(F)F)c1` (stereo partly drawn) [Compound 65] was below 0.1 µM; that for `N[C@H](Cc1ccccc1)[C@H](O)C(=O)NC(C(=O)O)c1cc(C(F)(F)F)cc(C(F)(F)F)c1` (stereo partly drawn) [Compound 66] was at least 1 µM.

As to `N[C@H](Cc1ccccc1)[C@H](O)C(=O)NC(C(=O)O)c1cc(C(F)(F)F)ccc1F` (stereo partly drawn) [Compound 67], the IC50 was at least 1 µM. As for `N[C@H](Cc1ccccc1)[C@H](O)C(=O)NC(C(=O)O)c1cc(F)cc(C(F)(F)F)c1` (stereo partly drawn) [Compound 68], the figure is below 0.1 µM; as for `N[C@H](Cc1ccccc1)[C@H](O)C(=O)NC(C(=O)O)c1ccc(F)c(C(F)(F)F)c1` (stereo partly drawn) [Compound 69], below 0.1 µM; as for `N[C@H](Cc1ccccc1)[C@H](O)C(=O)NC(c1cccc(C(F)(F)F)c1)c1noc(=O)[nH]1` (stereo partly drawn) [Compound 71], 0.1 to 1 µM.

Molecule `N[C@H](Cc1ccccc1)[C@H](O)C(=O)NC(CN1CCC(F)(F)CC1)C(=O)O` (stereo partly drawn) [Compound 72] yielded an IC50 of at least 1 µM. As for `N[C@H](Cc1ccccc1)[C@H](O)C(=O)N[C@@H](CN1CCC(C(F)(F)F)CC1)C(=O)O` [Compound 73], the figure is at least 1 µM. Regarding `N[C@H](Cc1ccccc1)[C@H](O)C(=O)N[C@H](c1cccc(OC(F)(F)F)c1)c1n[nH]c(=O)o1` [Compound 74], the IC50 is at least 1 µM. As for `N[C@H](Cc1ccccc1)[C@H](O)C(=O)N[C@@H](c1cccc(OC(F)(F)F)c1)c1n[nH]c(=O)o1` [Compound 75], the figure is at least 1 µM; as for `N[C@H](Cc1ccccc1)[C@H](O)C(=O)N[C@@H](C(=O)O)c1cc(C(F)(F)F)ccc1C(F)(F)F` [Compound 80], at least 1 µM. Regarding `N[C@H](Cc1ccccc1)[C@H](O)C(=O)N[C@H](C(=O)O)c1cc(C(F)(F)F)ccc1C(F)(F)F` [Compound 81], the IC50 is at least 1 µM. The value for `N[C@H](Cc1ccccc1)[C@H](O)C(=O)N[C@@H](CN1CCCC(F)(F)C1)C(=O)O` [Compound 82] was at least 1 µM; that for `N[C@H](Cc1ccccc1)[C@H](O)C(=O)N[C@@H](CN1CCC(F)(F)C1)C(=O)O` [Compound 83] was at least 1 µM. Regarding `C[C@](NC(=O)[C@@H](O)[C@H](N)Cc1ccccc1)(C(=O)O)c1cccc(C(F)(F)F)c1` [Compound 84, (R)-2-((2S,3R)-3-amino-2-hydroxy-4-phenylbutanamido)-2-(3-(trifluoromethyl)phenyl)propanoic acid], the IC50 is at least 1 µM.

The molecule `C[C@@](NC(=O)[C@@H](O)[C@H](N)Cc1ccccc1)(C(=O)O)c1cccc(C(F)(F)F)c1` [Compound 85, (S)-2-((2S,3R)-3-amino-2-hydroxy-4-phenylbutanamido)-2-(3-(trifluoromethyl)phenyl)propanoic acid] yielded a concentration for half-maximal inhibition (IC50) of at least 1 µM. Consider `N[C@H](Cc1ccccc1)[C@H](O)C(=O)N[C@@H](C(=O)O)c1cccc(C(F)(F)F)c1Cl` [Compound 86, (R)-2-((2S,3R)-3-amino-2-hydroxy-4-phenylbutanamido)-2-(2-chloro-3-(trifluoromethyl)phenyl)acetic acid], for which the IC50 was at least 1 µM. Molecule `N[C@H](Cc1ccccc1)[C@H](O)C(=O)N[C@H](C(=O)O)c1cccc(C(F)(F)F)c1Cl` [Compound 87, (S)-2-((2S,3R)-3-amino-2-hydroxy-4-phenylbutanamido)-2-(2-chloro-3-(trifluoromethyl)phenyl)acetic acid] registered an IC50 of 0.1 to 1 µM. As for `C[C@@](NC(=O)[C@@H](O)[C@H](N)Cc1ccccc1)(C(=O)O)c1cccc(OC(F)(F)F)c1` [Compound 88, (S)-2-((2S,3R)-3-amino-2-hydroxy-4-phenylbutanamido)-2-(3-(trifluoromethoxy)phenyl)propanoic acid], the figure is at least 1 µM; as for `C[C@](NC(=O)[C@@H](O)[C@H](N)Cc1ccccc1)(C(=O)O)c1cccc(OC(F)(F)F)c1` [Compound 89, (R)-2-((2S,3R)-3-amino-2-hydroxy-4-phenylbutanamido)-2-(3-(trifluoromethoxy)phenyl)propanoic acid], at least 1 µM.

The molecule `N[C@H](Cc1ccccc1)[C@H](O)C(=O)N[C@@H](C(=O)O)c1cccc(C(F)(F)F)c1F` [Compound 90, (R)-2-((2S,3R)-3-amino-2-hydroxy-4-phenylbutanamido)-2-(2-fluoro-3-(trifluoromethyl)phenyl)acetic acid] yielded an IC50 below 0.1 µM. As for `N[C@H](Cc1ccccc1)[C@H](O)C(=O)N[C@H](C(=O)O)c1cccc(C(F)(F)F)c1F` [Compound 91, (S)-2-((2S,3R)-3-amino-2-hydroxy-4-phenylbutanamido)-2-(2-fluoro-3-(trifluoromethyl)phenyl)acetic acid], the figure is 0.1 to 1 µM; as for `N[C@H](Cc1ccccc1)[C@H](O)C(=O)N[C@@H](C(=O)O)c1cc(F)cc(C(F)(F)F)c1` [Compound 92, (R)-2-((2S,3R)-3-amino-2-hydroxy-4-phenylbutanamido)-2-(5-fluoro-3-(trifluoromethyl)phenyl)acetic acid], below 0.1 µM. For `N[C@H](Cc1ccccc1)[C@H](O)C(=O)N[C@H](C(=O)O)c1cc(F)cc(C(F)(F)F)c1` [Compound 93, (S)-2-((2S,3R)-3-amino-2-hydroxy-4-phenylbutanamido)-2-(5-fluoro-3-(trifluoromethyl)phenyl)acetic acid], the IC50 was at least 1 µM. As for `N[C@H](Cc1ccccc1)[C@H](O)C(=O)N[C@@H](C(=O)O)c1ccc(F)c(C(F)(F)F)c1` [Compound 94, (R)-2-((2S,3R)-3-amino-2-hydroxy-4-phenylbutanamido)-2-(4-fluoro-3-(trifluoromethyl)phenyl)acetic acid], the IC50 was below 0.1 µM.

Molecule `N[C@H](Cc1ccccc1)[C@H](O)C(=O)N[C@H](C(=O)O)c1ccc(F)c(C(F)(F)F)c1` [Compound 95, (S)-2-((2S,3R)-3-amino-2-hydroxy-4-phenylbutanamido)-2-(4-fluoro-3-(trifluoromethyl)phenyl)acetic acid] gave a half-inhibitory concentration (IC50) of at least 1 µM. On to `N[C@H](Cc1ccccc1)[C@H](O)C(=O)N[C@@H](C(=O)O)c1ccc(F)c(C(F)(F)F)c1F` [Compound 96, (R)-2-((2S,3R)-3-amino-2-hydroxy-4-phenylbutanamido)-2-(2,4-difluoro-3-(trifluoromethyl)phenyl)acetic acid], for which the IC50 is below 0.1 µM. As to `N[C@H](Cc1ccccc1)[C@H](O)C(=O)N[C@H](C(=O)O)c1ccc(F)c(C(F)(F)F)c1F` [Compound 97, (S)-2-((2S,3R)-3-amino-2-hydroxy-4-phenylbutanamido)-2-(2,4-difluoro-3-(trifluoromethyl)phenyl)acetic acid], the IC50 fell in the range of 0.1 to 1 µM. For `N[C@H](Cc1ccccc1)[C@H](O)C(=O)N[C@@H](Cc1cc(F)c(OC(F)(F)F)c(F)c1)C(=O)O` [Compound 98], the IC50 was 0.1 to 1 µM.

In turn, `N[C@H](Cc1ccccc1)[C@H](O)C(=O)N[C@@H](Cc1ccc(F)c(OC(F)(F)F)c1)C(=O)O` [Compound 99] yielded an IC50 of at least 1 µM. As for `N[C@H](Cc1ccccc1)[C@H](O)C(=O)N[C@@H](Cc1ccc(C(F)(F)F)c(Cl)c1)C(=O)O` [Compound 100], the figure is 0.1 to 1 µM. In the case of `N[C@H](Cc1ccccc1)[C@H](O)C(=O)N[C@@H](CC1CCC(F)(F)CC1)c1n[nH]c(=O)o1` [Compound 101], the IC50 is at least 1 µM. `N[C@H](Cc1ccccc1)[C@H](O)C(=O)N[C@@H](C(=O)O)c1cc(F)cc(OC(F)(F)F)c1` [Compound 102, (R)-2-((2S,3R)-3-amino-2-hydroxy-4-phenylbutanamido)-2-(3-fluoro-5-(trifluoromethoxy)phenyl)acetic acid] returned an IC50 of at least 1 µM. In turn, `N[C@H](Cc1ccccc1)[C@H](O)C(=O)N[C@H](C(=O)O)c1cc(F)cc(OC(F)(F)F)c1` [Compound 103, (S)-2-((2S,3R)-3-amino-2-hydroxy-4-phenylbutanamido)-2-(3-fluoro-5-(trifluoromethoxy)phenyl)acetic acid] gave an IC50 below 0.1 µM.

On to `N[C@H](Cc1ccccc1)[C@H](O)C(=O)N[C@@H](C(=O)O)c1ccc(F)c(OC(F)(F)F)c1` [Compound 104, (R)-2-((2S,3R)-3-amino-2-hydroxy-4-phenylbutanamido)-2-(4-fluoro-3-(trifluoromethoxy)phenyl)acetic acid], for which the IC50 is at least 1 µM. As for `N[C@H](Cc1ccccc1)[C@H](O)C(=O)N[C@H](C(=O)O)c1ccc(F)c(OC(F)(F)F)c1` [Compound 105, (S)-2-((2S,3R)-3-amino-2-hydroxy-4-phenylbutanamido)-2-(4-fluoro-3-(trifluoromethoxy)phenyl)acetic acid], the figure is below 0.1 µM. The value for `N[C@H](Cc1ccccc1)[C@H](O)C(=O)N[C@@H](C(=O)O)c1ccc(Cl)c(OC(F)(F)F)c1` [Compound 106, (R)-2-((2S,3R)-3-amino-2-hydroxy-4-phenylbutanamido)-2-(4-chloro-3-(trifluoromethoxy)phenyl)acetic acid hydrochloride] was at least 1 µM; that for `N[C@H](Cc1ccccc1)[C@H](O)C(=O)N[C@H](C(=O)O)c1ccc(Cl)c(OC(F)(F)F)c1` [Compound 107, (S)-2-((2S,3R)-3-amino-2-hydroxy-4-phenylbutanamido)-2-(4-chloro-3-(trifluoromethoxy)phenyl)acetic acid hydrochloride] was below 0.1 µM.
